{"source": "patent US8211912B2", "about": "“Compositions and methods for effecting NAD+ levels using a nicotinamide phosphoribosyl tranferase inhibitor” (Gemin X Pharmaceuticals Canada, priority 2007, dated 2012)", "key": {"human NMPRT": {"target": "human NMPRT (Homo sapiens, UniProt P43490)", "sequence (P43490 whole entry)": "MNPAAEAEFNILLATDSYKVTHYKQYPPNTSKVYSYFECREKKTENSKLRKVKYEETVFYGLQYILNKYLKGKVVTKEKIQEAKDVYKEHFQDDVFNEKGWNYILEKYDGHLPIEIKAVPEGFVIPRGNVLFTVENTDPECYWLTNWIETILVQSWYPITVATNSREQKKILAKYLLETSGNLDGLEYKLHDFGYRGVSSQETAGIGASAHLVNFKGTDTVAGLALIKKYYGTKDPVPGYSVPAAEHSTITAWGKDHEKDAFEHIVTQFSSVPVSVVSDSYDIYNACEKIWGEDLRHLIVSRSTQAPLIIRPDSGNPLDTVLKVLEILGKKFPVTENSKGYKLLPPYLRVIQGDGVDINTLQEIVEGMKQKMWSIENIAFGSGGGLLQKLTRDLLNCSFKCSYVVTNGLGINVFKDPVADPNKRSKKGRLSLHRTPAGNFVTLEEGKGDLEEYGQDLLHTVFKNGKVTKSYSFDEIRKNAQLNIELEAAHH", "experiment": "Recombinant NMPRT coupled-enzyme fluorescence assay", "format": "biochemical", "design": "made in house; host or cells: E. coli BL21(DE3)pLysS", "conditions": "two independent experiments; Cheng-Prusoff; His-Flag tagged recombinant NMPRT", "protocol": "Human NMPRT cDNA (Origene; Rockville, Md.) was cloned into the pET151 vector (Invitrogen; Carlsbad, Calif.). The resulting construct encodes a recombinant NMPRT protein with hexahistidine and FLAG epitope tags at the NH2-terminus. Four liters of BL21(DE3)pLysS bacteria (Invitrogen; Carlsbad, Calif.) at O.D. ˜0.6 in LB media were induced to express the NMPRT protein with 200 μM IPTG (Roche Diagnostics; Mannheim, Germany) for 3.5 hours with shaking (250 rpm) at 37° C. The bacterial cells were harvested by centrifugation at 6,000 g for 15 minutes at 4° C., the supernatant was discarded and the cells frozen at −20° C. […] The protein concentration was determined by Bradford assay (Bio-Rad; Hercules, Calif.).\nThe activity of recombinant NMPRT was assessed using a coupled-enzyme fluorescence assay based on the quantitation of NAD^+. […] Fluorescence was measured using a Tecan Safire plate reader (Tecan-US; Durham, N.C.) with an excitation wavelength of 560 nm and emission wavelength of 590 nm. The Km for nicotinamide was determined for every preparation of the enzyme and a titration of NAD^+ was run with every assay to ensure that measurements were within the linear range. […] The Ki was calculated using Prism version 4.0 (Graphpad Software, Inc; San Diego, Calif.) and the Cheng-Prusoff Equation. […]\nIC50 value for the compound was determined in IM-9 and HCT-116 cells by ViaLight essay as described supra."}, "[1]": {"system": "HeLa cells transfected with pcFLAG-PNC1", "experiment": "Compound 1 cytotoxicity in cells overexpressing yeast PNC1, ViaLight 72 h", "conditions": "pcFLAG-PNC1 vs pcDNA3, 72 h ViaLight", "protocol": "Viability was measured after 72 hours by ViaLight assay. […] Each point represents the mean and error bars the SD of triplicate samples. […] The concentration of nicotinamide in RPMI 1640 media was […]. HeLa cells were transiently transfected with vector (pcDNA3) or a plasmid expressing a flag-tagged yeast PNC1 gene (pcFLAG-PNC1). […] Relative viability was assessed after 72 hours by ViaLight assay."}, "[2]": {"system": "DMS-114 human small cell lung carcinoma cells", "experiment": "Sensitization to DNA damaging chemotherapeutic agents, relative ATP viability, 3 days", "format": "cell-based", "conditions": "0.75 nM Compound 1 alone, 3 days; one value per experiment series (row agent); 0.00075 µM", "procedure": "Cells were plated in logarithmic growth phase at 500-20,000 cells per well in 96-well clear bottom plates (Corning; Corning, N.Y.) and cultured for 14 to 16 hours prior to the start of drug treatment. Serial dilutions of Compound 2 and Compound 1 were made in DMSO, diluted 1:50 in RPMI-1640 (Hyclone; Logan, Utah) and then added to tissue culture media at a final concentration of 0.2% DMSO. […] Relative ATP levels were determined by the bioluminescent measuring of cellular ATP levels in each culture well with the ViaLight-HS High Sensitivity Cytotoxicity and Cell Proliferation BioAssay Kit (Cambrex Bioproducts, Cat. No. LT07-311; Charles City, Iowa) according to manufacturer's instructions. Briefly, a cell permeabilizing reagent was added to each culture well in media at the time of viability determination, allowing free ATP to be released from viable cells in the culture. Addition of luciferase to the mixture catalyzes the release of light proportional to the amount of free ATP present, which can then be quantified in a Centro LB 960 luminometer (EG&G Berthold; Oak Ridge, Tenn.); the level of ATP is generally directly proportional to the viability of the cells.\nSigmoidal dose response curves were then generated using non-linear regression analysis of variable slope by Prism Version 4.00 for Windows (GraphPad Software, Inc.; San Diego, Calif.) and IC50 values calculated.\nThe IC50 values for the treatment with the DNA damaging agent were calculated relative to control cells that were treated with DMSO only."}, "[3]": {"system": "C666-1 (human undifferentiated nasopharyngeal cancer) cells", "experiment": "Cell viability assay with radiation therapy", "format": "cell-based", "conditions": "increasing concentrations of Compound 1, 24 hours prior to radiation therapy"}}, "note": "Where “and” joins values, the source holds several entries; their conditions need not be identical. Identical values can stand only once.", "data": [{"substance": "4-[N′-cyano-N″-(6-(4-chlorophenoxy)-hexyl)-N-guanidino]-pyridine [Compound 1]", "values": [{"measurement": "Ki", "setting": "human NMPRT", "result": 1, "unit": "nM"}, {"measurement": "Effect of yeast PNC1 overexpression on Compound 1 cytotoxicity", "setting": "[1]", "result": "rescued"}, {"measurement": "Percent viability of DMS-114 cells, 0.75 nM Compound 1 (no DNA damaging chemotherapeutic agent)", "setting": "[2]", "result": "47.7 ± 12% and 61.9 ± 16% and 57.9% and 53.20 ± 9.1%"}, {"measurement": "Cytotoxicity with radiation therapy", "setting": "[3]", "result": "higher level of cytotoxicity and an enhanced anticancer activity in comparison to radiation therapy alone"}]}]}
